# Results as given in patent US20240301003A1 (NoNO Inc., priority 2021, published 2024).
# Like-named read-outs stand apart in the source and are kept apart here. Where a SMILES comes first, the peptide text is derived from it. Where no end group is shown, it is not given here.
# Tests used:
# [1] = Plasmin sensitivity: peptides in PBS challenged with 10 ug/ml plasmin, HPLC; conditions: isolated enzyme plasmin
# PSD95PDZ2 = PSD95PDZ2 (Homo sapiens, UniProt P78352); test: Competitive ELISA with biotinylated-NA-1; conditions: PSD-95 domain 2, FIG. 12
# [2] = human studies, 2.6 mg/kg dose; cited from earlier work
# [3] = Degradation in rat plasma in vitro, alone or with rt-PA or TNK
# Source text: (§1) Samples were collected at 6 different time points.
# (§2) The experiment was repeated using TNK-tissue plasminogen activator in place of tPA.
# plasmin [4] = target: T1, plasmin (Homo sapiens, UniProt P00747); type: in vitro ADME; set-up: challenged with 10 ug/ml plasmin at 37 C
# Source text: Plasmin is a serum protease induced by thrombolytic agents, such as tPA. Plasmin cleavage sites can occur on the C-terminal side of basic amino acids residues in a peptide formed of L-amino acids. NA-1 was digested with plasmin and the products analyzed by mass spectrometry. […] However, cleavage at the other two sites may occur to a lesser extent.
# tPA = tPA (Homo sapiens, UniProt P00750)
# [5] = Pharmacokinetic analysis in rats (subcutaneous, pulmonary instillation, intravenous, intramuscular), HPLC
# Method: Rats were anaesthetized in the supine position (Isoflurane 1.5--%) and allowed to breath spontaneously in 0.5 L/min 02. The left femoral artery was cannulated for blood sampling.
# Test agents were prepared at the stablish concentration in a total volume of vehicle. Pulmonary instillation was performed by intubation with a 14G catheter connected to a 1 cc syringe and the test agent will be delivered through the catheter. Subcutaneous (SQ or SC) injection was injected into the area of the left flank, no more than 2 ml of total volume per site.
# Each dose was evaluated in 3 rats for each administration strategy. […] For the first experiment, evaluating two different administration routes (SQ and PI), blood samples were collected at 8 different timepoints: Pre and at 7 additional times (1, 2.5, 5, 10, 15, 30, 60 min) post dose (250 ul/sample).
# HPLC quantification: Plasma was separated from blood and stored at −−−80° C. until used. […] Standard curves for HPLC were generated from plasma samples spiked with known quantities of test agent.
# [6] = Renal biomarkers or electrolyte imbalance after administration to rats (Table 7); type: in vivo; conditions: rats, IV 7.6 mg/kg
# Method: NoNO42 was tested for effect on various renal biomarkers or electrolyte imbalance in comparison with nerinetide after administration to rats as shown in Table 7.
# [7] = test system: 3-pial vessel occlusion model of stroke
# [8] = Plasma concentrations 15 minutes post subcutaneous dose (animals of the 3PVO model); type: in vivo, rat; conditions: single subcutaneous administration, 2.5, 7.6, 25 mg/kg
# Method: Unlike transient models of stroke in rats where much lower doses are required for neuroprotection, neuroprotection in 3 pial vessel occlusion models of stroke seems to require plasma concentrations of nerinetide at or above 2 ug/mL (or molar equivalent). […] Although the plasma levels continue to increase through about 3 hours then decrease, it is important to achieve rapid accumulation in the blood and brain for emergency indications like stroke. […] For pharmacokinetic sample analysis, calibration standard samples at concentrations of 0, 2.5, 5, 10, 15, 20 and 40 ug/mL of nerinetide were prepared by spiking 1 μL of the appropriate stock to 100 μL of plasma. […] Data is presented as mean±SD.
# plasmin [9] = target: T1, plasmin; test: Plasmin sensitivity: peptides in PBS challenged with 10 ug/ml plasmin, HPLC
# Weight gain of rats = conditions: IV 7.6 mg/kg
# plasmin [10] = target: T1, plasmin; type: in vitro ADME; set-up: challenged with 10 ug/ml plasmin at 37 C; remark: listed apart in the source
# [11] = humans; cited from earlier work
# [12] = Degradation in human plasma in vitro, alone or with rt-PA or TNK
# Source text: as §1, §2
# tMCAo = test: Dose range of nerinetide in rat tMCAo model; type: in vivo, rats
# Method: Nerinetide and lodoxamide was administered to rats intravenously as a bolus injection, 60 minutes after tMCAo. […] Bars in A and represent mean±SD, with all individual data points plotted. Asterisks in A indicate P<0.01 when compared to the vehicle group (one-way ANOVA post hoc Tukey's correction for multiple comparisons test) N=12-14 animals/group. […] Significant differences are indicated with an asterisk when compared to the vehicle group (Kruskal-Wallis analysis of variance on ranks with a post-hoc Dunn's correction for multiple comparisons test, *P<0.01). Vehicle: PBS alone. […] Doses up to at least 25 mg/kg were also effective with the highest efficacy being at about 15 mg/kg. The observed wide therapeutic range was attributable to nerinetide, and not to the mast cell degranulation inhibitor lodoxamide, which was present in all solutions to avoid potential hypotension due to histamine release.
# NMDAR2B:PSD-95 complexes = target: T2, NMDAR2B:PSD-95 complexes (Rattus norvegicus, UniProt P31016); test: Dissociation of NMDAR2B:PSD-95 complexes after 3PVo, immunoprecipitation and Western blotting; type: in vivo, Sprague-Dawley rats; conditions: 7.6 mg/kg 1 hr after stroke onset (3PVo), brains harvested 2 h after onset
# T2 construct: Cortical stroke areas were collected for analysis; from tissue; host or cells: rat brain cortex (stroke area) after in vivo dosing
# Method: Sprague-Dawley rats were subject to three pial vessel model (3PVo). […] Brains were harvested 2 h after stroke onsets. Cortical stroke areas were collected for analysis. Immunoprecipitations were performed with anti-PSD-95 or anti-NMDAR2B. The amount of PSD-95 and NMDAR2B in samples was analyzed by Western blotting. Reduction in PSD-95-NMDAR2B complex formation was assessed by fold decrease of placebo versus treatment.
# [13] = IV bolus with lodoxamide 60 minutes after tMCAo
# T1 sequence (P00747 581-810 limits assumed, species assumed): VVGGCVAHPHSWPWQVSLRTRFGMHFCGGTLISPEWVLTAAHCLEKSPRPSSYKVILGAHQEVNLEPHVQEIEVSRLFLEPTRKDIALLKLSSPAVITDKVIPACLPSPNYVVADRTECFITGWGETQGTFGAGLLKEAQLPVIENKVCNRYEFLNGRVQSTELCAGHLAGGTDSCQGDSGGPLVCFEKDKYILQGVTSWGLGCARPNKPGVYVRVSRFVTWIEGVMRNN
# T1 sequence (P00747 97-580 partner limits assumed, species assumed): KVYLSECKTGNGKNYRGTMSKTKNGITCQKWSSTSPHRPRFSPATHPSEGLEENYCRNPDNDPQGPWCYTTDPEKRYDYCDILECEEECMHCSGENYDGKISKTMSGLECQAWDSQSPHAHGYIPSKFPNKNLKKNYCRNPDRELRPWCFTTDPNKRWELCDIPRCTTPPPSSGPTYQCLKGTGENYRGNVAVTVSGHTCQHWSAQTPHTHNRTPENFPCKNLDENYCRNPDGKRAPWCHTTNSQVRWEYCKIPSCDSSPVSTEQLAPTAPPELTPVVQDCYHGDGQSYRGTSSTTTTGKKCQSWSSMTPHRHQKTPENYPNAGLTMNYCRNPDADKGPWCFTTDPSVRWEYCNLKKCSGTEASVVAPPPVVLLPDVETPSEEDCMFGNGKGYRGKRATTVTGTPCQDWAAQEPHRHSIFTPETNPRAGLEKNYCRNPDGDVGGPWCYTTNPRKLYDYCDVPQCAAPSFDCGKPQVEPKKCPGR
# Chain of tPA (P00750 36-562): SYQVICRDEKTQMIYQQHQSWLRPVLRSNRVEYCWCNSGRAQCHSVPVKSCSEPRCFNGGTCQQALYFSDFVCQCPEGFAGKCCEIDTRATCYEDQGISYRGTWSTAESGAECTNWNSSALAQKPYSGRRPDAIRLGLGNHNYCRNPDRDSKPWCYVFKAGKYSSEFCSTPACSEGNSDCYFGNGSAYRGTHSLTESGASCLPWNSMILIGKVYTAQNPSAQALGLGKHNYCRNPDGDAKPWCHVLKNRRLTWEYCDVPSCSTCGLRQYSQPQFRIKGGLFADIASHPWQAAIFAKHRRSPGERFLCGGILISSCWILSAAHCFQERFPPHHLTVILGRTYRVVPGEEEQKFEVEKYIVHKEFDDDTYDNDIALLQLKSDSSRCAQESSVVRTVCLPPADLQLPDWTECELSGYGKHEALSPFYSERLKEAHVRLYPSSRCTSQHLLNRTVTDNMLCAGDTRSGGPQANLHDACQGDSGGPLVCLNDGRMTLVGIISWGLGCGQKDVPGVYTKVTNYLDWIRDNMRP
# Chain of PSD95PDZ2 (P78352 160-246 limits assumed): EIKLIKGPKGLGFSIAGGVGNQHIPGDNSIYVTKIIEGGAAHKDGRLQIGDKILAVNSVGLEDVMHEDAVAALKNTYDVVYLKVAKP
# T2 sequence (P31016 whole entry, one chain of several): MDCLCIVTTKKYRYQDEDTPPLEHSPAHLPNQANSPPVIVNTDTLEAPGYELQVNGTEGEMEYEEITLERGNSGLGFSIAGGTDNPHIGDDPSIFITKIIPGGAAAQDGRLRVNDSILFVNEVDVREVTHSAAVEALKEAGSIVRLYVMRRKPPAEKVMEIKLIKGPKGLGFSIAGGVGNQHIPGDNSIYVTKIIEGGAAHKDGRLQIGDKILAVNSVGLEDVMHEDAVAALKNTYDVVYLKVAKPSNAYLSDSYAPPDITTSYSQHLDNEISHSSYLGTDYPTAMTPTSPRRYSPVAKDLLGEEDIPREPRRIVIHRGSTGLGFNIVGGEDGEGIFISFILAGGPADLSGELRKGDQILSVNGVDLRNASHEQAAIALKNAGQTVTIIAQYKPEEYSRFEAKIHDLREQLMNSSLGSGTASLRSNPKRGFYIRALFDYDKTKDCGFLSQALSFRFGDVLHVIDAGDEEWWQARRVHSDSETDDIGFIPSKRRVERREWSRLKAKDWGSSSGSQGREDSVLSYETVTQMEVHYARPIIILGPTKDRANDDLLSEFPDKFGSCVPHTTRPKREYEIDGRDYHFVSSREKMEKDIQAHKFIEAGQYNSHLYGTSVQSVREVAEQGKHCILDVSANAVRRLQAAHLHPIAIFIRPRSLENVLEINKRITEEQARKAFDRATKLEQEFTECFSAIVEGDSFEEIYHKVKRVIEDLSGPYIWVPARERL
molecule,measurement,setting,value
CC[C@H](C)[C@H](NC(=O)[C@H](CO)NC(=O)[C@H](CO)NC(=O)[C@H](CC(C)C)NC(=O)[C@H](CCCCN)NC(=O)[C@H](CCCNC(=N)N)NC(=O)[C@@H](CCCNC(=N)N)NC(=O)[C@H](CCCNC(=N)N)NC(=O)[C@H](CCC(N)=O)NC(=O)[C@@H](CCCNC(=N)N)NC(=O)[C@H](CCCNC(=N)N)NC(=O)[C@H](CCCCN)NC(=O)[C@@H](CCCCN)NC(=O)[C@H](CCCNC(=N)N)NC(=O)CNC(=O)[C@@H](N)Cc1ccc(O)cc1)C(=O)N[C@@H](CCC(=O)O)C(=O)N[C@@H](CO)C(=O)N[C@@H](CC(=O)O)C(=O)N[C@H](C(=O)O)C(C)C [NA-4.4.3] (HELM PEPTIDE1{Y.G.R.[dK].K.R.[dR].Q.R.[dR].R.K.L.S.S.I.E.S.D.V}$$$$V2.0; N-terminus and C-terminus assumed),"remaining at 0.5 h, 65 ug/ml",[1],> 85%
"YGRKKRRQRRRKLSSIESDV [NA-1, reference compound]",EC50 (compared between peptides),PSD95PDZ2,about the same within experimental error
same,effective plasma concentration,[2],~10 µg/mL
same,degradation with coadministration of TNK,[3]; rat plasma (FIG. 8),rapid degradation
same,NA-1 content decay with tPA versus NA-1 alone,"[3]; rat plasma in vitro, NA-1 65 ug/mL, rt-PA 22.5-135 ug/mL",decayed much more rapidly when tPA was co-administered
same,time to decay to zero,"[3]; rat plasma in vitro, treated with tPA",≤ 15 min
same,plasmin cleavage sites,plasmin [4],cleavage at seven of nine potential sites
same,"degradation, control treatment with tPA",tPA,no degradation
same,direct cleavage by tPA or TNK,tPA,Neither tPA nor TNK directly cleaves NA-1
same,AUC versus intravenous NA-1,[5]; intramuscular,somewhat higher
same,CMax versus intravenous NA-1,[5]; intramuscular,lower
same,half-life versus intravenous NA-1,[5]; intramuscular,higher
same,AUC versus the same dose of intravenous NA-1,[5]; subcutaneous,somewhat lower
same,CMax versus the same dose of intravenous NA-1,[5]; subcutaneous,much lower
same,half-life versus intravenous NA-1,[5]; subcutaneous,longer
same,Anion Gap,[6]; Day 4,7.3 mmol/L
same,BUN,[6]; Day 4,13.7 mg/dL
same,Cl,[6]; Day 4,100.7 mmol/L
same,Creatinine,[6]; Day 4,0.2 mg/dL
same,Glucose,[6]; Day 4,178.0 mg/dL
same,Hct,[6]; Day 4,39% ± % PCV
same,Hgb,[6]; Day 4,13.4 g/dL
same,K+,[6]; Day 4,4.8 mmol/L
same,Na+,[6]; Day 4,137.3 mmol/L
same,iCa,[6]; Day 4,1.43 mmol/L
same,tCO2,[6]; Day 4,35.0 mmol/L
same,Anion Gap,[6]; Day 14,9.0 mmol/L
same,BUN,[6]; Day 14,16.7 mg/dL
same,Cl,[6]; Day 14,98.3 mmol/L
same,Creatinine,[6]; Day 14,0.2 mg/dL
same,Glucose,[6]; Day 14,253.3 mg/dL
same,Hct,[6]; Day 14,38% ± % PCV
same,Hgb,[6]; Day 14,13.0 g/dL
same,K+,[6]; Day 14,4.4 mmol/L
same,Na+,[6]; Day 14,136.7 mmol/L
same,iCa,[6]; Day 14,1.45 mmol/L
same,tCO2,[6]; Day 14,34.3 mmol/L
same,Anion Gap,[6]; Pre,7.3 mmol/L
same,BUN,[6]; Pre,15.0 mg/dL
same,Cl,[6]; Pre,98.0 mmol/L
same,Creatinine,[6]; Pre,0.2 mg/dL
same,Glucose,[6]; Pre,251.7 mg/dL
same,Hct,[6]; Pre,38% ± % PCV
same,Hgb,[6]; Pre,13.0 g/dL
same,K+,[6]; Pre,4.8 mmol/L
same,Na+,[6]; Pre,135.7 mmol/L
same,iCa,[6]; Pre,1.46 mmol/L
same,tCO2,[6]; Pre,35.7 mmol/L
same,infarct volume compared to placebo,[7]; 7.6 mg/kg subcutaneous bolus 60 minutes after onset of stroke,failed to achieved infarct volume reduction
same,infarct volume compared to placebo,[7]; 25 mg/kg subcutaneous bolus 60 minutes after onset of stroke,significant reduction in infarct volume
same,plasma concentration required for neuroprotection,[7]; 3 pial vessel occlusion models of stroke,≥ 2 µg/mL
same,relation between treatment dose and Cmax,[8],dose proportionality between the treatment dose and the Cmax
same,time to degradation,plasmin [9]; 10 ug/mL plasmin (FIG. 29),≤ 5 min
same,degradation by plasmin,"plasmin [9]; about 65 ug/ml peptide in PBS, 10 ug/ml plasmin, 37 C, HPLC",completely degraded in about five minutes
same,Weight,Weight gain of rats; Day 4,368.0 grams
same,Weight,Weight gain of rats; Day 14,420.0 grams
same,Weight,Weight gain of rats; Pre,360.3 grams
same,degradation on treatment with plasmin,plasmin [10],rapidly degraded
same,doses at which drops in blood pressure have been observed,[11],above 3.75 mg/kg
same,degradation with coadministration of TNK,[12]; human plasma (FIG. 7),rapid degradation
same,NA-1 content decay with tPA versus NA-1 alone,"[12]; human plasma in vitro, NA-1 65 ug/mL, rt-PA 22.5-135 ug/mL",decayed much more rapidly when tPA was co-administered
same,dose of highest efficacy,tMCAo; [13],about 15 mg/kg
same,doses up to which nerinetide was effective,tMCAo; [13],at least 25 mg/kg
same,lowest dose producing significant reduction in infarct volume and improvement in neurological function,"tMCAo; IV bolus with lodoxamide 60 minutes after tMCAo, 24 hours",0.25 mg/kg
same,effective dosage range (reducing infarction size and neurologic deficit),"tMCAo; rat tMCAo model, at least this range",0.25-25 mg/kg
same,dissociation of preformed NMDAR2B:PSD-95 complexes,NMDAR2B:PSD-95 complexes,able to dissociate preformed NMDAR2B:PSD-95 complexes
